From ChEMBL document CHEMBL1649174, “Human immunodeficiency virus type 1 isolates with the reverse transcriptase (RT) mutation Q145M retain nucleoside and nonnucleoside RT inhibitor susceptibility” (2009)

Assays:
Type in all cases: functional
[1] = system: Human immunodeficiency virus 1; experiment: Antiviral activity against Human immunodeficiency virus 1 clone pNL4-3-Q145M harboring K102Q, Q145M, S162C, K277R, I293V mutation in reverse transcriptase by phenosense assay relative to wild type
[2] = system: Human immunodeficiency virus 1; experiment: Antiviral activity against Human immunodeficiency virus 1 clone 38086 harboring K49R, V60I, I135V, Q145M, Q174H, G196E, Q207E, R211K, V245K mutation in reverse transcriptase by phenosense assay relative to wild type
[3] = system: Human immunodeficiency virus 1; experiment: Antiviral activity against Human immunodeficiency virus 1 clone 14682 harboring 122E, 135V, Q145V, 200A mutation in reverse transcriptase by phenosense assay relative to wild type
[4] = system: Human immunodeficiency virus 1; experiment: Antiviral activity against Human immunodeficiency virus 1 clone Q9016 harboring K122E, Q145M, I202V, F214L mutation in reverse transcriptase by phenosense assay relative to wild type

SMILES	fold change (FC) [1]	fold change (FC) [2]	fold change (FC) [3]	fold change (FC) [4]
Cc1cn([C@H]2C=C[C@@H](CO)O2)c(=O)[nH]c1=O [STAVUDINE]	0.9	1.1	0.9	1.1
O=c1[nH]cnc2c1ncn2[C@H]1CC[C@@H](CO)O1 [DIDANOSINE]	1.1	1.5	1	0.9
O=C1Nc2ccc(Cl)cc2[C@@](C#CC2CC2)(C(F)(F)F)O1 [EFAVIRENZ]	0.9	1	1.3	1.2
Nc1nc(NC2CC2)c2ncn([C@H]3C=C[C@@H](CO)C3)c2n1 [ABACAVIR]	1.1	0.9	1.1	1.2
CC(C)Nc1cccnc1N1CCN(C(=O)c2cc3cc(NS(C)(=O)=O)ccc3[nH]2)CC1 [DELAVIRDINE]	0.6	0.4	0.9	0.7
C[C@H](Cn1cnc2c(N)ncnc21)OCP(=O)(O)O [TENOFOVIR ANHYDROUS]	0.9	0.9	0.9	1.5
Cc1ccnc2c1NC(=O)c1cccnc1N2C1CC1 [NEVIRAPINE]	1.3	1.1	0.5	0.7
Cc1cn([C@H]2C[C@H](N=[N+]=[N-])[C@@H](CO)O2)c(=O)[nH]c1=O [ZIDOVUDINE]	0.7	0.9	0.8	1.1
Nc1nc(=O)n([C@@H]2CS[C@H](CO)O2)cc1F [EMTRICITABINE]	0.9	1.2	0.5	1.1
